Measured values taken from patent US7625943B2, “5-alkyl-7-alkylcarbonate-isoflavone ester and related method” (priority 2004, dated 2009).

Experiments:
duration of action = assay type: in vivo; settings: estimated; ratio to 5-methyl-7-methoxy-isoflavone
From the text: One limitation of known prodrugs is that, once they are transformed into the parent drug, they are broken down in the body, and particularly in the liver. This breakdown reduces in vivo concentration and bioavailability of the drug. This breakdown effect has been observed with 5-methyl-7-methoxy-isoflavone. In the presently preferred embodiments of the invention, however, the compounds are less prone to such breakdown in the body relative to many known prodrug-type compounds. This in many instances is attributable to the alkylcarbonate ester promoiety, which makes the compound more resistant to hydrolysis and other reactions that inhibit or destroy them in the body. In vivo concentrations thus can be maintained more readily, and bioavailability of the parent isoflavone can be improved. It has been estimated that the duration of action for 5-methyl-7-ethylcarbonate-isoflavone may be twice that of 5-methyl-7-methoxy-isoflavone.

[1] = after transformation into the parent drug; cited from earlier work
[2] = administered to a human; estimated; cited from earlier work

duration of action relative to 5-methyl-7-methoxy-isoflavone (duration of action)	Compound	breakdown effect in the body (liver) reducing in vivo concentration and bioavailability [1]	proportion of administered prodrug converted in vivo to 7-hydroxy-5-methyl-isoflavone [2]
twice	CCOC(=O)Oc1cc(C)c2c(=O)c(-c3ccccc3)coc2c1 [5-methyl-7-ethylcarbonate-isoflavone]	–	–
–	COc1cc(C)c2c(=O)c(-c3ccccc3)coc2c1 [5-methyl-7-methoxy-isoflavone]	observed	approximately 50%
